Experimental data as given in patent US8802597B2, “Herbicidal pyrimidines” (E I du Pont de Nemours and Company, priority 2003, dated 2014).
Read-outs that look alike come from different tables or passages of the source.

Legend:
Assay type in all cases: in vivo
[1] = test system: umbrella sedge (Cyperus difformis); experiment: Test B flooded paddy test; conditions: Cyperus difformis, Flood, 1000 g ai/ha; scale 0 to 100; read-out: Plant response rating, Sedge, Umbrella
How it was run: (§1)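 Rice, umbrella sedge, duck salad and barnyardgrass grown to 2-leaf stage under flooded paddy conditions and treated with formulated test chemicals. Kept in greenhouse 13–15 days, then visually rated against untreated controls on a 0–100 scale (0 no effect, 100 complete control).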

[2] = test system: duck salad (Heteranthera limosa); experiment: Test B flooded paddy test; conditions: Heteranthera limosa, Flood, 1000 g ai/ha; scale 0 to 100; read-out: Plant response rating, Ducksalad
How it was run: as §1

[3] = test system: rice (Oryza sativa); experiment: Test B flooded paddy test; conditions: Oryza sativa, Flood, 1000 g ai/ha; scale 0 to 100; read-out: Plant response rating, Rice
How it was run: as §1

[4] = test system: barnyardgrass (Echinochloa crus-galli); experiment: Test B flooded paddy test; conditions: Echinochloa crus-galli, Flood, 1000 g ai/ha; scale 0 (no effect) to 100 (complete control); read-out: Plant response rating, Barnyardgrass
How it was run: as §1

[5] = test system: blackgrass (Alopecurus myosuroides); experiment: Test B postemergence; conditions: Alopecurus myosuroides, post-emergence
How it was run: (§2)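 Visual rating, 0 (no effect) to 100 (complete control) versus controls, taken 13–15 days after treatment in greenhouse. Compounds formulated in non-phytotoxic solvent plus surfactant; pre: sprayed after seeding; post: plants at 1- to 4-leaf stage, 2–18 cm.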

[6] = test system: wild oat (Avena fatua); experiment: Test B postemergence; conditions: Avena fatua, post-emergence
How it was run: as §2

[7] = test system: morningglory (Ipomoea coccinea); experiment: Test B pre/postemergence; conditions: Ipomoea; for pest or weed control at 125 g/ha: 125 g ai/ha; for pest or weed control at 500 g/ha: 500 g ai/ha
How it was run: as §2

[8] = test system: cocklebur (Xanthium strumarium); experiment: Test B pre/postemergence; conditions: Xanthium strumarium; for pest or weed control at 125 g/ha: 125 g ai/ha; for pest or weed control at 500 g/ha: 500 g ai/ha
How it was run: as §2

[9] = test system: lambsquarters (Chenopodium album); experiment: Test B pre/postemergence; conditions: Chenopodium album; for pest or weed control at 125 g/ha: 125 g ai/ha; for pest or weed control at 500 g/ha: 500 g ai/ha
How it was run: as §2

[10] = test system: wheat (Triticum aestivum); experiment: Test B pre/postemergence; conditions: Triticum aestivum; for plant injury at 125 g/ha: 125 g ai/ha; for plant injury at 500 g/ha: 500 g ai/ha
How it was run: as §2

[11] = test system: pigweed (Amaranthus retroflexus); experiment: Test B pre/postemergence; conditions: Amaranthus retroflexus; for pest or weed control at 125 g/ha: 125 g ai/ha; for pest or weed control at 500 g/ha: 500 g ai/ha
How it was run: as §2

[12] = test system: giant foxtail (Setaria faberii); experiment: Test B pre/postemergence; conditions: Setaria faberi; for pest or weed control at 125 g/ha: 125 g ai/ha; for pest or weed control at 500 g/ha: 500 g ai/ha
How it was run: as §2

[13] = test system: barnyardgrass (Echinochloa crus-galli); experiment: Test B pre/postemergence; conditions: Echinochloa crus-galli; for pest or weed control at 125 g/ha: 125 g ai/ha; for pest or weed control at 500 g/ha: 500 g ai/ha
How it was run: as §2

[14] = test system: Surinam grass (Brachiaria decumbens); experiment: Test B pre/postemergence; conditions: Urochloa decumbens; for pest or weed control at 125 g/ha: 125 g ai/ha; for pest or weed control at 500 g/ha: 500 g ai/ha
How it was run: as §2

[15] = test system: corn (Zea mays); experiment: Test B pre/postemergence; conditions: Zea mays
How it was run: as §2

[16] = test system: crabgrass (Digitaria sanguinalis); experiment: Test B pre/postemergence; conditions: Digitaria sanguinalis; for pest or weed control at 125 g/ha: 125 g ai/ha; for pest or weed control at 500 g/ha: 500 g ai/ha
How it was run: as §2

[17] = test system: velvetleaf (Abutilon theophrasti); experiment: Test B pre/postemergence; conditions: Abutilon theophrasti; for pest or weed control at 125 g/ha: 125 g ai/ha; for pest or weed control at 500 g/ha: 500 g ai/ha
How it was run: as §2

[18] = pre-emergence, Preemergence, scale 0 to 100 (0 no effect, 100 complete control), read-out: Plant response rating, Wheat

CCOC(=O)c1nc(C(C)(C)C)nc(N)c1Br [Compound 36]
50%: pest or weed control at 500 g/ha ([9]; post-emergence, Postemergence, scale 0 to 100, read-out: Plant response rating, Lambsquarters)
20%: pest or weed control at 125 g/ha ([8]; post-emergence, Postemergence, scale 0 to 100 (0 no effect, 100 complete control), read-out: Cocklebur plant response rating) | pest or weed control at 125 g/ha ([11]; post-emergence, Postemergence, scale 0 to 100 (0 no effect, 100 complete control), read-out: Pigweed plant response rating) | pest or weed control at 500 g/ha ([11]; pre-emergence, Preemergence, scale 0 to 100 (0 no effect, 100 complete control), read-out: Pigweed plant response rating) | pest or weed control at 125 g/ha ([17]; post-emergence, Postemergence, scale 0 to 100 (0 no effect, 100 complete control), read-out: Velvetleaf plant response rating)
10%: pest or weed control at 125 g/ha ([7]; post-emergence, Postemergence, scale 0 to 100 (0 no effect, 100 complete control), read-out: Morningglory plant response rating) | pest or weed control at 125 g/ha ([8]; pre-emergence, Preemergence, scale 0 to 100 (0 no effect, 100 complete control), read-out: Plant response rating, Cocklebur) | pest or weed control at 500 g/ha ([12]; post-emergence, Postemergence, scale 0 to 100, read-out: Plant response rating, Foxtail, Giant) | pest or weed control at 125 g/ha ([17]; pre-emergence, Preemergence, scale 0 to 100 (0 no effect, 100 complete control), read-out: Plant response rating, Velvetleaf)
30%: pest or weed control at 500 g/ha ([11]; post-emergence, Postemergence, scale 0 to 100, read-out: Plant response rating, Pigweed)
70%: pest or weed control at 500 g/ha ([7]; post-emergence, Postemergence, scale 0 to 100, read-out: Plant response rating, Morningglory) | pest or weed control at 500 g/ha ([8]; post-emergence, Postemergence, scale 0 to 100, read-out: Plant response rating, Cocklebur)
0%: pest or weed control at 1000 g/ha [1] | pest or weed control at 1000 g/ha [2] | plant injury at 1000 g/ha [3] | pest or weed control at 1000 g/ha [4] | pest or weed control at 125 g/ha ([5]; 125 g ai/ha, scale 0 to 100 (0 no effect, 100 complete control), read-out: Blackgrass plant response rating) | pest or weed control at 125 g/ha ([6]; 125 g ai/ha, scale 0 to 100 (0 no effect, 100 complete control), read-out: Oat, Wild plant response rating) | pest or weed control at 125 g/ha ([7]; pre-emergence, Preemergence, scale 0 to 100 (0 no effect, 100 complete control), read-out: Plant response rating, Morningglory) | pest or weed control at 500 g/ha ([7]; pre-emergence, Preemergence, scale 0 to 100 (0 no effect, 100 complete control), read-out: Morningglory plant response rating) | pest or weed control at 125 g/ha ([9]; pre-emergence, Preemergence, scale 0 to 100 (0 no effect, 100 complete control), read-out: Plant response rating, Lambsquarters) | plant injury at 125 g/ha ([10]; post-emergence, Postemergence, scale 0 to 100 (0 no effect, 100 complete control), read-out: Wheat plant response rating) | plant injury at 125 g/ha [10, 18] | plant injury at 500 g/ha [10, 18] | pest or weed control at 125 g/ha ([11]; pre-emergence, Preemergence, scale 0 to 100 (0 no effect, 100 complete control), read-out: Plant response rating, Pigweed) | pest or weed control at 125 g/ha ([12]; post-emergence, Postemergence, scale 0 to 100 (0 no effect, 100 complete control), read-out: Foxtail, Giant plant response rating) | pest or weed control at 125 g/ha ([12]; pre-emergence, Preemergence, scale 0 to 100 (0 no effect, 100 complete control), read-out: Plant response rating, Foxtail, Giant) | pest or weed control at 500 g/ha ([12]; pre-emergence, Preemergence, scale 0 to 100 (0 no effect, 100 complete control), read-out: Foxtail, Giant plant response rating) | pest or weed control at 125 g/ha ([13]; post-emergence, Postemergence, scale 0 to 100 (0 no effect, 100 complete control), read-out: Barnyardgrass plant response rating) | pest or weed control at 500 g/ha ([13]; post-emergence, Postemergence, scale 0 to 100, read-out: Plant response rating, Barnyardgrass) | pest or weed control at 125 g/ha ([13]; pre-emergence, Preemergence, scale 0 to 100 (0 no effect, 100 complete control), read-out: Plant response rating, Barnyardgrass) | pest or weed control at 500 g/ha ([13]; pre-emergence, Preemergence, scale 0 to 100 (0 no effect, 100 complete control), read-out: Barnyardgrass plant response rating) | pest or weed control at 125 g/ha ([14]; post-emergence, Postemergence, scale 0 to 100 (0 no effect, 100 complete control), read-out: Surinam Grass plant response rating) | pest or weed control at 500 g/ha ([14]; post-emergence, Postemergence, scale 0 to 100, read-out: Plant response rating, Surinam Grass) | pest or weed control at 125 g/ha ([14]; pre-emergence, Preemergence, scale 0 to 100 (0 no effect, 100 complete control), read-out: Plant response rating, Surinam Grass) | pest or weed control at 500 g/ha ([14]; pre-emergence, Preemergence, scale 0 to 100 (0 no effect, 100 complete control), read-out: Surinam Grass plant response rating) | plant injury at 125 g/ha ([15]; post-emergence, Postemergence, 125 g ai/ha, scale 0 to 100 (0 no effect, 100 complete control), read-out: Corn plant response rating) | Corn plant response rating (crop injury, 0 = no effect, 100 = complete kill) at 500 g/ha ([15]; post-emergence, Postemergence, 500 g ai/ha, scale 0 to 100) | Corn plant response rating (crop injury, 0 = no effect, 100 = complete kill) at 125 g/ha ([15]; pre-emergence, Preemergence, 125 g ai/ha, scale 0 to 100 (0 no effect, 100 complete control)) | plant injury at 500 g/ha ([15]; pre-emergence, Preemergence, 500 g ai/ha, scale 0 to 100 (0 no effect, 100 complete control), read-out: Corn plant response rating) | pest or weed control at 125 g/ha ([16]; post-emergence, Postemergence, scale 0 to 100 (0 no effect, 100 complete control), read-out: Crabgrass plant response rating) | pest or weed control at 500 g/ha ([16]; post-emergence, Postemergence, scale 0 to 100, read-out: Plant response rating, Crabgrass) | pest or weed control at 125 g/ha ([16]; pre-emergence, Preemergence, scale 0 to 100 (0 no effect, 100 complete control), read-out: Plant response rating, Crabgrass) | pest or weed control at 500 g/ha ([16]; pre-emergence, Preemergence, scale 0 to 100 (0 no effect, 100 complete control), read-out: Crabgrass plant response rating)
60%: pest or weed control at 500 g/ha ([8]; pre-emergence, Preemergence, scale 0 to 100 (0 no effect, 100 complete control), read-out: Cocklebur plant response rating)
40%: pest or weed control at 500 g/ha ([5]; 500 g ai/ha, scale 0 to 100, read-out: Plant response rating, Blackgrass) | pest or weed control at 500 g/ha ([6]; 500 g ai/ha, scale 0 to 100, read-out: Plant response rating, Oat, Wild) | pest or weed control at 125 g/ha ([9]; post-emergence, Postemergence, scale 0 to 100 (0 no effect, 100 complete control), read-out: Lambsquarters plant response rating) | pest or weed control at 500 g/ha ([9]; pre-emergence, Preemergence, scale 0 to 100 (0 no effect, 100 complete control), read-out: Lambsquarters plant response rating) | plant injury at 500 g/ha ([10]; post-emergence, Postemergence, scale 0 to 100, read-out: Plant response rating, Wheat) | pest or weed control at 500 g/ha ([17]; post-emergence, Postemergence, scale 0 to 100, read-out: Plant response rating, Velvetleaf) | pest or weed control at 500 g/ha ([17]; pre-emergence, Preemergence, scale 0 to 100 (0 no effect, 100 complete control), read-out: Velvetleaf plant response rating)
